Assay results reported in patent US20070293517A1, “Derivatives Of Chemotherapeutic Agents With A Formaldehyde Releasing Moiety” (RAMOT AT TEL AVIV UNIVERSITY LTD., priority 2004, published 2007).

Key:
MES SA DXS = experiment: Proliferation assay, MES SA DXS cells; format: cell-based, human; settings: for IC50 / IC90: MES SA DXS
Source text: (§1) Cells: The human breast cancer cell lines MCF-7 and MCF-7 DX, were obtained from Dr. R. Supino (Laboratorio Oncologia, Milano, Italy); the murine 3LLD122 highly metastatic Lewis lung carcinoma cell line was obtained from Dr. Eisenbach L, the Weizmann Inst., Israel. The following cell lines were purchased from the ATCC, USA: CT-26, an N-nitroso-N-methylurethane-(NNMU) induced murine (BALB-C) colon carcinoma; Panc02, a mouse (C57/Bl) pancreas adenocarcinoma; HT-49, a human colorectal adenocarcinoma; LS1034, a multidrug resistant human colorectal carcinoma; BxPC-3 human pancreas adenocarcinoma; MES-SA and MES-SA-DXS, human uterine sarcoma sensitive and multidrug resistant, respectively; and Human prostate carcinoma 22RV1, a subclone of CWR22 cells.
(§2) The cells were maintained in DMEM growth medium supplemented with 10% heat inactivated fetal calf serum, 2 mM glutamine, penicillin (250 units/ml) and streptomycin (125 μg/ml) in a humidified 5% CO2/air atmosphere at 37° C.
(§3) Proliferation assay: cells at a density of 3-5×10^4 cells/ml in 200 μl medium supplemented with 10% FCS were seeded in tissue culture 96-well plates for 24 hours, and were then exposed for 72 hours to a novel derivative of a chemotherapeutic agent (in quadruplicate) as specified. After 3 days, the cells were rinsed with PBS, and fixed with ethanol (70%) for 30 minutes. The ethanol was thereafter discarded, 200 μl of 10 μg/ml HOECHST fluorescent dye (Sigma) solubilized in PBS were added and the fluorescence was measured at 390-460 nm with a FluoStar fluorometer. MTT solution (10 ml of 5 mg/ml MTT (Sigma) in PBS) was added, and the plate was incubated for 3 hours. Formazan crystals were dissolved with 140 ml of 0.04 HCl-isopropanol. The optical density of the wells was measured with a microplate reader at 540 nm.
(§4) IC50 and IC90 values were determined from the best-fitted curve where the percentages of survival were 50 or 90 respectively.

MCF-7 DX = experiment: Proliferation assay, MCF-7 DX cells; format: cell-based, human
Method: (§5) Cells: The human breast cancer cell lines MCF-7 and MCF-7 DX, were obtained from Dr. R. Supino (Laboratorio Oncologia, Milano, Italy); the murine 3LLD122 highly metastatic Lewis lung carcinoma cell line was obtained from Dr. Eisenbach L, the Weizmann Inst., Israel. […]
(§6) Proliferation assay: cells at a density of 3-5×10^4 cells/ml in 200 μl medium supplemented with 10% FCS were seeded in tissue culture 96-well plates for 24 hours, and were then exposed for 72 hours to a novel derivative of a chemotherapeutic agent (in quadruplicate) as specified. […] The ethanol was thereafter discarded, 200 μl of 10 μg/ml HOECHST fluorescent dye (Sigma) solubilized in PBS were added and the fluorescence was measured at 390-460 nm with a FluoStar fluorometer. […] The optical density of the wells was measured with a microplate reader at 540 nm.
as §4

various cell lines = experiment: Dose response studies in various cell lines, absence and presence of semicarbazide; format: cell-based
Method: as §3
Semicarbazide sensitive amine oxidase is a source of formaldehyde and is therefore a marker for the effect of formaldehyde. It has been shown that semicarbazide traps formaldehyde and reduces its concentration inside the cell (Nudelman et al. J. Med. Chem., 2005, 48, 1047-1054). Thus, the critical role of formaldehyde can be confirmed by reversal of formaldehyde-mediated effects by the addition of semicarbazide.
Tables 3 and 4 below, as well as FIGS. 7A, 7B and 8A-8D present the dose response studies performed with various cell lines in the absence and presence of semicarbazide, the formaldehyde trapping agent.

colon carcinoma cells = experiment: Viability of colon carcinoma cells (FIG. 12); format: cell-based
Method: as §3
Apoptosis assay: Cells (2×10^5 cells/ml) were seeded in 24-well plates and incubated with a derivative of a chemotherapeutic agent according to the present embodiments, as specified, for 24 hours. The cells were thereafter collected and double-stained with annexin V-FITC and propidium iodide, according to the manufacturer's instructions (MBL, Japan). Alive, apoptotic and total dead cells were quantitated by flow cytometry using a FACS calibur cytometer (Becton Dickinson).

[1] = system: colon cancer cells (LS-1034 and HT-29); experiment: Survival of colon cancer cells (both lines); format: cell-based, human
Method: as §5, §6, §4

[2] = system: sensitive and resistant uterine cancer cells (MES-SA, MES-SA DXS); experiment: Proliferation/survival, sensitive and resistant uterine cancer cells (both lines); format: cell-based, human
Source text: as §1, §3, §4

histone acetylation = experiment: Histone acetylation in treated cells; format: cell-based
Method: Western blot analysis: Whole cell tissue lysates or acid extracted histones were solubilized in a 4-fold concentrated sample buffer and […] protein samples were separated by SDS-PAGE. The proteins were transferred to a nitrocellulose membrane (Schleicher & Schuell, Germany) and probed with the primary antibodies as indicated, followed by incubation with an HRP-goat anti-rabbit IgG secondary antibody. Visualization of the bound HRP-goat anti-rabbit IgG was performed using the enhanced chemiluminescence that was done using Western Blotting Luminol reagent (cat No. SC-2048, Santa Cruz, Calif., US). Equal amounts of reagent A and B were mixed, and added to the nitrocellulose membrane for 1 minute. Excess liquid was absorbed and the membrane was exposed for 5 minutes to Chemiluminescence BioMax light film (cat. No. 868 9358, Kodak, USA). The intensity of the bands was measured with a Versa Doc instrument with Quantityl program (Bio-Rad, USA). The fold increase of each specific protein was determined by the ratio of band intensities of treated and untreated cells, normalized to loading control (actin or histone H3).

BXPC-3 = experiment: Proliferation assay, BXPC-3 cells; format: cell-based, human
Source text: as §1, §2, §3, §4

MES SA = experiment: Proliferation assay, MES SA cells; format: cell-based, human
Source text: as §1, §2, §3, §4

Panc 02 = experiment: Proliferation assay, Panc 02 cells; format: cell-based; settings: Mus musculus, Panc02
Source text: as §1, §2, §3, §4

HT-29 = experiment: Proliferation assay, HT-29 cells; format: cell-based, human
CT-26 = experiment: Proliferation assay, CT-26 cells; format: cell-based, murine; settings: CT-26
Source text: as §1, §2, §3, §4

LS-1034 = experiment: Proliferation assay, LS-1034 cells; format: cell-based, human
Source text: as §1, §2, §3, §4

[3] = system: HT-29 human colon carcinoma; experiment: Xenograft flank colon carcinoma model, HT29; format: in vivo; settings: nude mice
Method: Xenograft flank colon carcinoma models: Eight weeks old, male CD1 nude mice (Harlan, Israel) were inoculated sc in the flanks with 5×10^6 HT29 or LS1034 cells. When tumor volume reached 50-100 mm^3, treatment with derivatives of chemotherapeutic agents according to the present embodiments commenced and was given by gavage five times a week for the duration of the experiment at the specified doses. Tumor volume (determined by caliper) and body weights were measured twice weekly. Tumor volume was measured (mm) using the formula for an ellipsoid sphere: Length×Width^2/2=Volume (mm)^3 This commonly used formula was also used to calculate tumor weight, assuming unit density (1 mm^3=1 mg). Serum PSA or CEA: […] At the end of the experiment blood samples were drawn from the eyes of mice (anesthetized slightly by inhalation of ether) or from the hearts of sacrificed animals.

[4] = system: prostate carcinoma cells 22RV; experiment: Viability of prostate carcinoma cells 22RV; format: cell-based, human
Method: as §5, §6
Apoptosis assay: Cells (2×10^5 cells/ml) were seeded in 24-well plates and incubated with a derivative of a chemotherapeutic agent according to the present embodiments, as specified, for 24 hours. […] Alive, apoptotic and total dead cells were quantitated by flow cytometry using a FACS calibur cytometer (Becton Dickinson).

[5] = Homo sapiens, tegafur value calculated by extrapolation from the best fitted curve

COc1cccc2c1C(=O)c1c(O)c3c(c(O)c1C2=O)C[C@@](O)(C(=O)CO)C[C@@H]3O[C@H]1C[C@H](N)[C@H](O)[C@H](C)O1 [Doxorubicin]
fold decrease in the inhibitory effect on proliferation, MES-SA DXS compared with the isogenetic non-resistant cell line (MES SA DXS): approximately 30 fold | fold more resistant to doxorubicin, MCF-7 DX compared with MCF cells (MCF-7 DX): approximately 7 fold | IC50 (MCF-7 DX; Homo sapiens, MCF7/DX, MCF-7 DX, 7 independent experiments): 392 ± 40 µM

NNC(N)=O [Semicarbazide, semicarbazide, reference compound]
effect of semicarbazide alone on the cells (various cell lines; 0.5 mM, absence of chemotherapeutic agents): did not affect the cells

CCCC(=O)OCn1c(=O)c(F)cn(C2CCCO2)c1=O [AN-420, 5-fluoro-2,3-dihydro-3-((R)-tetrahydrofuran-2-yl)-2,6-dioxopyrimidin-1(6H)-yl)methyl butyrate]
effect on cancer cell viability (% of control) (colon carcinoma cells): significantly more effective than tegafur | fold more potent than tegafur, based on IC90 values [1]: ≥ 10 fold | maximal cell killing achieved [2]: 100% | histone acetylation in treated cells (histone acetylation): increase of histone acetylation | IC50 (BXPC-3; + SC 500 μM): 88 ± 6 µM | IC90 (BXPC-3; + SC 500 μM): 280 ± 36 µM | IC50 (BXPC-3; Homo sapiens): 74 ± 4 µM | IC90 (BXPC-3; Homo sapiens): 141 ± 5 µM | IC50 (MES SA; + SC 500 μM): 92 ± 14 µM | IC90 (MES SA; + SC 500 μM): 214 ± 80 µM | IC50 (MES SA; Homo sapiens): 79 ± 22 µM | IC90 (MES SA; Homo sapiens): 177 ± 77 µM | IC50 (Panc 02): 46 ± 3 µM | IC90 (Panc 02): 149 ± 19 µM | IC50 (MES SA DXS; Homo sapiens): 54 ± 5 µM | IC90 (MES SA DXS; Homo sapiens): 95 ± 8 µM | IC50 (MES SA DXS; + SC 500 μM): 115 ± 29 µM | IC90 (MES SA DXS; + SC 500 μM): 312 ± 116 µM | reduction of cell killing by co-treatment with semicarbazide (various cell lines; semicarbazide 0.5 mM): substantially reduced the cell killing | IC90 (HT-29; HT-29, + SC 500 μM): 138 ± 30 µM | IC50 (HT-29; HT-29, + SC (semicarbazide) 500 μM): 51 ± 5 µM | IC90 (HT-29; Homo sapiens, HT-29): 84 ± 21 µM | IC50 (HT-29; Homo sapiens, HT-29, HT-29): 35 ± 5 µM | IC50 (CT-26; + SC 500 μM): 34 ± 10 µM | IC90 (CT-26; + SC 500 μM): 94 ± 30 µM | IC50 (CT-26; Mus musculus, CT26): 27 ± 4 µM | IC90 (CT-26; Mus musculus, CT26): 76 ± 14 µM | IC90 (LS-1034; Homo sapiens, LS-1034): 79 ± 23 µM | IC50 (LS-1034; Homo sapiens, LS-1034, LS-1034): 42 ± 7 µM | IC50 (LS-1034; LS-1034, + SC 500 μM): 52 ± 8 µM | IC90 (LS-1034; LS-1034, + SC 500 μM): 105 ± 29 µM

CCCC(=O)OCn1c(=O)cc[nH]c1=O [AN-439, (2,3-Dihydro-2,6-dioxopyrimidin-1(6H)-yl)methyl butyrate]
effect on cancer cell viability (% of control) (colon carcinoma cells): reduced cell viability in a dose dependent manner

O=c1[nH]c(=O)n(C2CCCO2)cc1F (stereo not drawn) [Tegafur, tegafur, reference compound]
maximal cell killing achieved [2]: 80% | IC50 (BXPC-3; Homo sapiens): 172 ± 21 µM | IC90 (BXPC-3; Homo sapiens): 688 ± 113 µM | IC50 (MES SA; Homo sapiens): 337 ± 20 µM | IC90 (MES SA; [5]): 1200 ± 97 µM | IC50 (Panc 02): 179 ± 25 µM | IC90 (Panc 02): 637 ± 66 µM | IC50 (MES SA DXS; Homo sapiens): 405 ± 20 µM | IC90 (MES SA DXS; [5]): 1470 ± 96 µM | IC90 (HT-29; Homo sapiens, HT-29): 747 ± 52 µM | IC50 (HT-29; Homo sapiens, HT-29, HT-29): 201 ± 15 µM | IC50 (CT-26; Mus musculus, CT26): 136 ± 19 µM | IC90 (CT-26; Mus musculus, CT26): 411 ± 23 µM | IC90 (LS-1034; Homo sapiens, LS-1034): 1600 ± 240 µM | IC50 (LS-1034; Homo sapiens, LS-1034, LS-1034): 519 ± 93 µM | CEA level in serum [3]: higher | tumor growth inhibition ([3]; P<<0.001): substantially inhibited tumor growth

O=c1cc[nH]c(=O)[nH]1 [uracil, reference compound]
effect on cancer cell viability (% of control) (colon carcinoma cells): no effect

CCCC(=O)OCN1C(=O)CCC(N2C(=O)c3ccccc3C2=O)C1=O (stereo not drawn) [AN-438, 2-(1-butroyloxymethyl-2,6-dioxopiperidin-3-yl)isoindoline-1,3-dione]
reduction of viability compared with thalidomide ([4]; prostate carcinoma cells 22RV): significantly more effective in reducing the viability | effect on viability on addition of semicarbazide ([4]; prostate carcinoma cells, 0.5 mM semicarbazide): abrogated the effect | reduction of viability compared with thalidomide (HT-29; human colon cells HT-29): significantly more effective in reducing the viability
